Experimental data from US20080051597A1, “Process for Producing 2-Methyladamantan-2-Yl (Meth)Acrylate and 2-Methyladamantan-2-Yl (Meth)Acrylate” (Mitsubishi Chemical Corporation, priority 2004, published 2008).

Assay: Solubility of methyleneadamantane in organic compound
Assay type: physicochemical
Conditions: supernatant analysed by gas chromatography
Experimental: To a predetermined amount of an organic solvent was added 2-methyleneadamantane in such an amount that it remains in the solvent after dissolution. After stirring the mixture while keeping the temperature at 0° C., the resulting mixture was allowed to stand. A supernatant was collected therefrom and its composition was analyzed by gas chromatography.
The solubility of 2-methyleneadamantane and the amount of 2-methyleneadamantane in the reaction product were measured by gas chromatography analysis described below. • Gas chromatography analyzer: “GC-14B”, product of Shimadzu Corporation • Column: “TC-1”, product of Tokyo Chemical Industry (inner diameter: 0.25 mm, thickness of filler: 0.25 μm, length: 60 m) • Feed port temperature: 150° C. • Detector: FID • Detector temperature: 280° C. • Conditions of column oven: The column oven was retained at 100° C. for 3 minutes, heated to 180° C. at 10° C./min, retained at 180° C. for 5 minutes, heated to 280° C. at 10° C./min, and then retained at 280° C. for 5 minutes.

## C=C1C2CC3CC(C2)CC1C3 [methyleneadamantane, 2-methyleneadamantane]
  solubility of methyleneadamantane in 100 g of n-undecane at 0° C.: 101 g
